# Source: ChEMBL document CHEMBL1201862, “PubChem BioAssay data set” (2004)
# Structures can show the parent of a compound that is named as a salt. Activity calls are given as the source filed them.
# How the values were obtained:
# [1] = HCT116 cell viability decrease, GSK3B pretreatment – CellTiter-Glo, IC50, dose response (AID 1117339); assay type: functional; details: HCT-116
# [2] = Concentration-dependent survival of SW480 colon cancer line, luminescence detection with CellTiter-Glo, half-maximal inhibitory concentration (AID 1117338); assay type: functional
# [3] = cytotoxicity toward HT-29 cells – cell-based, CellTiter-Glo luminescence, IC50, dose response (AID 1117330); assay type: functional
# [4] = SNU-C1 cell viability reduction, dose response, CellTiter-Glo luminescence (AID 1117323); assay type: functional, cell-based
# [5] = cytotoxicity toward HCT116 cells – cell-based, CellTiter-Glo luminescence, IC50, dose response (AID 1117332); assay type: functional; details: HCT-116
# [6] = RKO cell viability reduction, dose response, CellTiter-Glo luminescence (AID 1117322); assay type: functional
# [7] = cytotoxicity toward Colo320 cells – cell-based, CellTiter-Glo luminescence, IC50, dose response (AID 1117334); assay type: functional; details: COLO 320
# [8] = CellTiter-Glo luminescent dose response of DLD-1 viability loss (AID 1117352); assay type: functional
# [9] = HEp-2 cell cytotoxicity, dose response, cytotoxicity control for RSV inhibitor project, HTS (AID 2410); assay type: functional; details: human respiratory syncytial virus
# [10] = A Cell-Based Confirmatory Screen for Compounds that Inhibit VEEV, TC-83 (2).; assay type: functional
# [11] = Vero 76 cell cytotoxicity, dose response, cytotoxicity control, set 2 (AID 602240); assay type: functional; details: Venezuelan equine encephalitis virus
# [12] = A Cell-Based Counter Screen testing Compounds that Inhibit VEEV TC-83, in strain KU V3526.; assay type: functional
# Cytochrome P450 3A4 = Cytochrome P450 3A4 (Homo sapiens, UniProt P08684);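 note: CYP3A4 tested as one member of a cytochrome P450 panel screen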
# Vero [13] = assay: cells; assay type: functional; details: Chlorocebus sabaeus
# cells [14] = assay: cells
# Vero [15] = assay: cells; assay type: functional, cell-based; details: Chlorocebus sabaeus
# Cytochrome P450 1A2 = molecular target: T1, Cytochrome P450 1A2 (Homo sapiens, UniProt P05177);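 note: PubChem cytochrome P450 panel assay, CYP1A2 panel member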
# T1 sequence (P05177 whole entry): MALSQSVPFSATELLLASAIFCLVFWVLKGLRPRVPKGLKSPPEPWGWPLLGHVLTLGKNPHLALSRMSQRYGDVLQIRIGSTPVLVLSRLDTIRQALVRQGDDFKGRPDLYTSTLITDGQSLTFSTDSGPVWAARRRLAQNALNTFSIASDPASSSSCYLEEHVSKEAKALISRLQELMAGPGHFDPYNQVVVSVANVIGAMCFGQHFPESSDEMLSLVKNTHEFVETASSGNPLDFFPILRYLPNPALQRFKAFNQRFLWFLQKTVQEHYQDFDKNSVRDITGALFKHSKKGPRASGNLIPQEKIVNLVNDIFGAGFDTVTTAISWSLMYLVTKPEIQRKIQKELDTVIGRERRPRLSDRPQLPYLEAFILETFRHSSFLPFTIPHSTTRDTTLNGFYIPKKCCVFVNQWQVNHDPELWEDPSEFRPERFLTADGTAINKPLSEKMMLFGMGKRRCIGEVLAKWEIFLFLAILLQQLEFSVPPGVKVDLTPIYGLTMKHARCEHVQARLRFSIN
# [16] = HEK293 cell cytotoxicity, dose response, cytotoxicity control, ATP luminescence, dry powder, set 3 (AID 743131); assay type: functional, cell-based
# Protein Tat = Protein Tat (Human immunodeficiency virus type 1 group M subtype B (isolate HXB2)(HIV-1), UniProt P04608); assay type: functional;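 note: tat binding to TAR RNA read out by fluorescence polarization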
# [17] = molecular target: Luciferin 4-monooxygenase (Photinus pyralis, UniProt P08659); assay: firefly luciferase enzyme inhibitors, dose response, biochemical, luminescence (AID 1891)
# [18] = Luminescence Cell-Based Dose Confirmation HTS to Identify Inhibitors of Platelet Dense Granule Release. [Related pubchem assays: 1663 (Primary HTS), 1678 (Summary of Project)]; assay type: functional
# [19] = molecular target: Glutathione-S-transferase (Schistosoma japonicum, UniProt Q26513); assay: biotin-GST/anti-GST TR-FRET signal inhibitors, dose response, artefact control for Vif-APOBEC3G degradation inhibitor project, biochemical (AID 1117362); assay type: functional
# P388/ADR = assay: cells; assay type: functional; details: Mus musculus
# [20] = molecular target: FAD-linked sulfhydryl oxidase ALR (Homo sapiens, UniProt P55789); assay: inhibitors of human ALR sulfhydryl oxidase, dose response, biochemical, H2O2 detection, luminescence, cherry-pick (AID 493248)
# P388 = assay: cells; assay type: functional; details: Mus musculus
# [21] = Luminescence Cell-Based Dose Response HTS to Identify Inhibitors of 5'UTR Stem-Loop Driven Prion Protein mRNA Translation in H4 Neuroglioblastoma Cells. [Related pubchem assays: 1827 (Project Summary), 1813 (Primary HTS)]; assay type: functional
# [22] = inhibitors of SNCA 5'UTR-driven reporter translation, confirmation, H4 neuroglioma cells, luminescence (AID 1988); assay type: functional, cell-based
# [23] = HeLa 2N DNA content increase, dose response, cell-based, IC50 (AID 1117349); assay type: functional
# [24] = inhibitors of firefly luciferase expression or activity, dose response, H4 neuroglioma cells, luminescence (AID 1990); assay type: functional, cell-based
# [25] = HeLa 4N DNA content increase, dose response, cell-based, IC50 (AID 1117351); assay type: functional
# SN12K1 = assay: cells; assay type: functional; details: Homo sapiens
# [26] = A375 melanoma cell cytotoxicity, dose response, counter-screen for MITF inhibitor project, CellTiter-Glo luminescence, dry powder, set 2 (AID 624489); assay type: functional, cell-based; details: A-375;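 note: actives are compounds lowering A375 viability meaning general cytotoxicity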
# [27] = MITF Orthogonal Assay: MALME3 CTG Assay Measured in Cell-Based System Using Plate Reader - 2084-04_Inhibitor_Dose_DryPowder_Activity_Set6.; assay type: functional; details: MALME-3
# [28] = TRPM1 promoter luciferase reporter signal decrease, dose response, MITF inhibitor project, cell-based, SK-MEL-5, dry powder, set 9 (AID 651588); assay type: functional
# [29] = MITF Orthogonal Assay: SK-MEL-5 CTG Assay Measured in Cell-Based System Using Plate Reader - 2084-02_Inhibitor_Dose_DryPowder_Activity_Set5.; assay type: functional
# [30] = A375 melanoma cell cytotoxicity, dose response, counter-screen for MITF inhibitor project, CellTiter-Glo luminescence, dry powder, set 7 (AID 624490); assay type: functional, cell-based; details: A-375
# [31] = MALME3 melanoma cell viability reduction, dose response, orthogonal assay for MITF inhibitor project, CellTiter-Glo luminescence, dry powder, set 5 (AID 651584); assay type: functional, cell-based; details: MALME-3
# [32] = A375 melanoma cell viability loss, dose response, counter-screen for MITF modulator project, CellTiter-Glo luminescence, dry powder, set 9 (AID 651591); assay type: functional, cell-based; details: A-375
# [33] = MITF Measured in Cell-Based System Using Plate Reader - 2084-01_Inhibitor_Dose_DryPowder_Activity_Set6.; assay type: functional
# [34] = A375 melanoma cell cytotoxicity, dose response, counter-screen for MITF inhibitor project, CellTiter-Glo luminescence, dry powder, set 6 (AID 624488); assay type: functional, cell-based; details: A-375
# [35] = MITF Measured in Cell-Based System Using Plate Reader - 2084-01_Inhibitor_Dose_DryPowder_Activity_Set7.; assay type: functional
# [36] = SK-MEL-5 parental cell viability reduction, dose response, orthogonal assay for MITF inhibitor project, CellTiter-Glo luminescence, dry powder, set 8 (AID 651586); assay type: functional, cell-based
# [37] = SK-MEL-5 parental line viability, dose response, MITF inhibitor project, cell-based, CellTiter-Glo, dry powder, set 6 (AID 624429); assay type: functional
# [38] = A375 melanoma cell viability loss, dose response, counter-screen for MITF inhibitor project, CellTiter-Glo luminescence, dry powder, set 4 (AID 624364); assay type: functional, cell-based; details: A-375;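 note: A375 melanoma cells are MITF independent so this is a counter screen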
# cells [39] = details: HEK293
# [40] = A549 cell cytotoxicity, dose response, cytotoxicity control, plate reader, dry powder, set 6 (AID 743312); assay type: functional, cell-based
# [41] = HepG2 cell cytotoxicity, dose response, cytotoxicity control, plate reader, dry powder, set 6 (AID 743311); assay type: functional, cell-based
# Sequence of Protein Tat (P04608 whole entry): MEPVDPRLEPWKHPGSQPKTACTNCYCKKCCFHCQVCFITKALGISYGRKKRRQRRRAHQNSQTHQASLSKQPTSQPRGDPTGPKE
# Sequence of Luciferin 4-monooxygenase (P08659 whole entry): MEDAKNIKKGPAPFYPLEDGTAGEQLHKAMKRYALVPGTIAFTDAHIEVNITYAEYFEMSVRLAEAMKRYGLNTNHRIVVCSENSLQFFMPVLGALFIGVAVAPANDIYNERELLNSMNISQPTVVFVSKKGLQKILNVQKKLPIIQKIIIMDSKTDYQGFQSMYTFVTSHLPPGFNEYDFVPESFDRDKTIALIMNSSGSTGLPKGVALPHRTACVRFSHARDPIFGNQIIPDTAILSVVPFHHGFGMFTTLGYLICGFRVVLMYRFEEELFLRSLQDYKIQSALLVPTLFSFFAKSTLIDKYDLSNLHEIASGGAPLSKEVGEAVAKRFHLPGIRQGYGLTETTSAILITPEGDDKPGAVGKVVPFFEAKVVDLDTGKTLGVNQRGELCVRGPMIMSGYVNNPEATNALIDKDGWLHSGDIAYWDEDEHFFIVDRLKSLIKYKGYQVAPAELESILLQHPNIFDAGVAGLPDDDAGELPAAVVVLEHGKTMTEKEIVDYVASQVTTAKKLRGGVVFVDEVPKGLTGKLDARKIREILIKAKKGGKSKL
# Sequence of Glutathione-S-transferase (Q26513 whole entry): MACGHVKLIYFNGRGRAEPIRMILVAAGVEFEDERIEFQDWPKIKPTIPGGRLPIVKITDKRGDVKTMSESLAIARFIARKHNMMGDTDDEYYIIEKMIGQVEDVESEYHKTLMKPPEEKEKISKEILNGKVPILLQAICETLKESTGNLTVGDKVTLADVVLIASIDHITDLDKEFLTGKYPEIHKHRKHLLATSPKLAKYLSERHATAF
# Sequence of Cytochrome P450 3A4 (P08684 whole entry): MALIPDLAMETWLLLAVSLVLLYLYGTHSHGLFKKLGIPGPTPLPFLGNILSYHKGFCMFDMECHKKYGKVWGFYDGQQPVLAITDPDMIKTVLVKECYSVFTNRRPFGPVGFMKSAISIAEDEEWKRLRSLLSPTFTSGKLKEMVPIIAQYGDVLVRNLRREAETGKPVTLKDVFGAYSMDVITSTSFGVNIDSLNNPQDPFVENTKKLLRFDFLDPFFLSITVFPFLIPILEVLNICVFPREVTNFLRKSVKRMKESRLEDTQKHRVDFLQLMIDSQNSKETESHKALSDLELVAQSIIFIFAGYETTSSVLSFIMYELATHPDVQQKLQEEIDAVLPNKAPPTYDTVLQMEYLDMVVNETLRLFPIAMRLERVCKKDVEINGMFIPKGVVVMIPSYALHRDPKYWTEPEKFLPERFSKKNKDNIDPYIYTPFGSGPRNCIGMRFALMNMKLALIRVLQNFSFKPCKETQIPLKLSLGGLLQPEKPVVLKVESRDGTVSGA
# Sequence of FAD-linked sulfhydryl oxidase ALR (P55789 whole entry): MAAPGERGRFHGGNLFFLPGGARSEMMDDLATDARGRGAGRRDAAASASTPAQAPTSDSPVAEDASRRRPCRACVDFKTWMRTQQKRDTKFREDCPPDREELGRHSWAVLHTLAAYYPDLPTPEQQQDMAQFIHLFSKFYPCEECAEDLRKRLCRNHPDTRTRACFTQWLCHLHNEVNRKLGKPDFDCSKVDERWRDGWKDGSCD
smiles,measurement,setting,value
CNS(=O)(=O)CCc1ccc2[nH]cc(C3CCN(C)CC3)c2c1 [NARATRIPTAN HYDROCHLORIDE],IC50,[1],12.1 µM (inactive)
same,IC50,[2],> 20 µM (inactive)
same,IC50,[3],> 20 µM (inactive)
same,IC50,[4],> 20 µM (inactive)
same,IC50,[5],> 20 µM (inactive)
same,IC50,[6],> 20 µM (inactive)
same,IC50,[7],> 20 µM (inactive)
same,IC50,[8],> 20 µM (inactive)
CCOC(=O)c1ccc(Nc2nc(=O)c3cccnc3s2)cc1,CC50,[9],22.4 µM (active)
same,IC50,[10],10.8 µM (active)
same,CC50,[11],> 50 µM (active)
same,IC50,[12],7.07 µM (active)
same,AC50,Cytochrome P450 3A4,inconclusive
same,CC50,Vero [13],> 25 µM (active)
same,IC50,cells [14],9.32 µM (active)
same,IC50,Vero [15],6.32 µM (active)
same,AC50,Cytochrome P450 1A2,14.1 µM (inconclusive)
Cc1ccccc1OCCn1c(S)nc2ccccc21,AC50,[16],0.344 µM (active)
O=C(NC(=S)N1CCCc2ccccc21)c1ccccc1,IC50,Protein Tat,> 100 µM (active)
same,EC50,[17],> 112 µM (not active)
same,EC50,[18],> 112 µM (not active)
same,IC50,[19],90.8 µM (active)
O=C(O)CCCc1ccc(N(CCCl)CCCl)cc1 [CHLORAMBUCIL],GI50,P388/ADR,6.25 µM (inactive)
same,AC50,[20],< 0.005 µM (active)
same,GI50,P388,3.73 µM (inactive)
same,EC50,[21],> 120 µM (not active)
same,EC50,[22],32.6 µM (active)
same,IC50,[23],> 10 µM (inactive)
same,EC50,[24],> 120 µM (not active)
same,IC50,[25],> 10 µM (inactive)
same,GI50,SN12K1,49.5 µM (inactive)
CN1CCN(C2=C(NS(=O)(=O)c3ccc(Br)s3)C(=O)c3ccccc3C2=O)CC1,AC50,[26],47.4 µM (active)
same,AC50,[27],12 µM (active)
same,AC50,[28],8.02 µM (active)
same,AC50,[29],11.2 µM (active)
same,AC50,[30],> 70 µM (inactive)
same,AC50,[31],12 µM (active)
same,AC50,[32],> 70 µM (inactive)
same,AC50,[33],1.94 µM (active)
same,AC50,[34],26.3 µM (active)
same,AC50,[35],2.26 µM (active)
same,AC50,[36],36.8 µM (active)
same,AC50,[37],64.7 µM (active)
same,AC50,[38],65 µM (active)
Cc1cc2ncn(CCOc3ccccc3C)c2cc1C,AC50,cells [39],47.4 µM (active)
same,AC50,[40],11.4 µM (active)
same,AC50,[41],36.5 µM (active)
